Reference: patent US20260077191A1, “COMBINATION THERAPY FOR THE TREATMENT OF DEPRESSION” (Flow Neuroscience, Inc., priority 2022, published 2026)

Key:
[1] = system: serotonin reuptake and norepinephrine reuptake; details: cited from earlier work; for selectivity for serotonin reuptake inhibition than norepinephrine reuptake inhibition: higher selectivity for serotonin reuptake
[2] = system: Major depressive disorder (MDD); experiment: weekly MADRS-s self-assessment of MDD subjects on a pharmacologic antidepressant agent combined with tDCS sessions (Example 2); type: in vivo, human; details: each agent combined with tDCS; Week 6; change in MADRS-s, FIG. 7
Source text: In this example, a subject completed a MADRS-s questionnaire at baseline (defined as a time preceding initiation of neurostimulation) to determine a starting measurement to be used in an assessment of treatment efficacy. Ideally, baseline measures were made close to the period of time in which the first neurostimulation session began. The subject completed the same MADRS-s questionnaire weekly during a period of ongoing treatment comprising administering of a prescribed pharmacologic antidepressant agent and delivery to the subject of plurality tDCS sessions. […]
Subjects were provided with a tDCS neurostimulation device, instructions of use, and an program capable of being run on a handheld electronic device which provided instructions, recorded responses to various questionnaires completed by the subject, and recorded information regarding the tDCS stimulation sessions completed by the user. Amongst the tDCS stimulation session information recorded was the date of each session completed, the time of day of each completed session, the duration of each completed session, the intensity of electrical stimulation in each session, the latency from the most recently completed session to the previous session.
Subjects completed a MADSR-s assessment at baseline prior to their first tDCS session. […] If the dosage had changed, the subject recorded the extent of the change. […]

Row | SMILES | potency for norepinephrine reuptake inhibition than serotonin reuptake inhibition [1] [fold] | effectiveness in improving symptoms of depression compared to fluoxetine [2] | selectivity for serotonin reuptake inhibition than norepinephrine reuptake inhibition [1] [fold]
1 | CCN(CC)C(=O)[C@@]1(c2ccccc2)C[C@H]1CN [Levomilnacipran] | 2 | – | –
2 | CCN(CC)C(=O)C1(c2ccccc2)CC1CN (stereo not drawn) [Milnacipran] | 3 | – | –
3 | CN[C@H]1CC[C@@H](c2ccc(Cl)c(Cl)c2)c2ccccc21 [Sertraline] | – | significantly better | –
4 | COc1ccc(C(CN(C)C)C2(O)CCCCC2)cc1 (stereo not drawn) [Venlafaxine] | – | approaching significance | –
5 | CN(C)CC(c1ccc(O)cc1)C1(O)CCCCC1 (stereo not drawn) [desvenlafaxine] | – | – | 10
6 | CNCC[C@H](Oc1cccc2ccccc12)c1cccs1 [duloxetine] | – | – | 10
